In one data set the target is T1, sEH (Homo sapiens, UniProt P34913).
T1 sequence (P34913 1-555): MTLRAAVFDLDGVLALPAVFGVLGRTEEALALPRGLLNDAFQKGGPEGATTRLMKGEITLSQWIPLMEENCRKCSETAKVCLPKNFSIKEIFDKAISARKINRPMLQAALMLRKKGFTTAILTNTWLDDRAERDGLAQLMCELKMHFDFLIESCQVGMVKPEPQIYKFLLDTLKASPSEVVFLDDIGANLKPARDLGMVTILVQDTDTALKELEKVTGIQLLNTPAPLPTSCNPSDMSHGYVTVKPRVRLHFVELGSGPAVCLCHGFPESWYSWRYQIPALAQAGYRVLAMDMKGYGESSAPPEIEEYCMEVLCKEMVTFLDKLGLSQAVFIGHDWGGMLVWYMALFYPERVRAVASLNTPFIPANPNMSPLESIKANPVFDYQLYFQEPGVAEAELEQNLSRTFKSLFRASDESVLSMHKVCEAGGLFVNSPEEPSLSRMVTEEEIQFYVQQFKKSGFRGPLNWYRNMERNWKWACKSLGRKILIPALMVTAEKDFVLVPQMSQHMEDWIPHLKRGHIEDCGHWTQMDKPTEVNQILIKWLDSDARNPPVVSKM
Nature of the data set: testing as sEH inhibitors (method not given). Format: biochemical.

Data set [1] can be described thus: metabolic stability (method not given).
Data set [2] can be described thus: blood concentration of TPPU by LC-MS. The data set is classed as in vivo. Particulars: mouse, whole blood; mice, 24 h after last oral administration, after 15 days at 1 mg/kg/day. The method, then:
The samples were taken at 24 h after the last oral gavage treatment. […] The results are expressed as mean±SD from six mice per group.
Animals orally received 1×10^9 CFU/ml of a diluted culture of freshly grown A. actinomycetemcomitans JP2, in a volume of 100 μl PBS containing 2% carboxymethylcellulose. The solution was placed into the oral cavity with a micropipette, and the procedure was repeated at 48 and 96 h after the first inoculation. Treatment with TPPU and EETs was initiated after the third inoculation of bacteria. The inhibitor was dissolved in PEG400 and administered at 1 mg/kg/day by oral gavage. For the treatment with EETs, we attempted to apply viscous solution of mixture of EET-methyl ester regioisomers dissolved in PEG400 to the gum tissue using a fine pipette at a dose of 1 μg/kg/day. The mice received the entire EET dose. This was done immediately before the oral gavage with both groups of mice receiving TPPU or mice receiving vehicle alone. Because EETs are unstable in stomach acid we assume exposure is largely topical or buccal. All treatments continued for 15 days. […] The negative control group consisted of uninfected mice (sham-infected), the positive control group was infected and received the vehicle only. One day after the treatment period (16th day), animals were sacrificed by cardiac puncture after anesthesia with xylazine/ketamine. […]

SMILES strings stand for the structures.

Regarding `CCCCCCCCCCCCNC(=O)NC12CC3CC(CC(C3)C1)C2` [ADU, N-Adamantyl-N′-dodecyl urea], on sEH, the “activity as inhibitor of sEH” value was “particularly high activity”. Also, the metabolic stability entry in data set [1] is “metabolically stable”. In turn, `CCC(=O)N1CCC(NC(=O)Nc2ccc(OC(F)(F)F)cc2)CC1` [TPPU, 1-trifluoromethoxyphenyl-3-(1-propionylpiperidin-4-yl) urea] showed a concentration at 24 h in data set [2] greater than 8 µg/mL.
